Measurements taken from article PMC9865163, “Structural Basis of the Inhibition of L-Methionine γ-Lyase from Fusobacterium nucleatum” (International Journal of Molecular Sciences, 2023).
Where a name gives a salt, the structure may show the parent alone. Read-outs that look alike come from different tables or passages of the source. Where a SMILES comes first, the peptide text is derived from it. The star is where a group is joined. PhAc = O=C(Cc1ccccc1)*

Experiments:
Fn1419 [1] = molecular target: T1, Fn1419 (Fusobacterium nucleatum subsp. nucleatum, UniProt Q8RDT4); assay type: biochemical
T1 construct: Fn1419 (GeneBank: AAL95612.1, residues 1–395); His-tag (N); made in house; host or cells: E. coli BL21 (DE3)
T1 sequence (Q8RDT4 whole entry, the tested form may be a part): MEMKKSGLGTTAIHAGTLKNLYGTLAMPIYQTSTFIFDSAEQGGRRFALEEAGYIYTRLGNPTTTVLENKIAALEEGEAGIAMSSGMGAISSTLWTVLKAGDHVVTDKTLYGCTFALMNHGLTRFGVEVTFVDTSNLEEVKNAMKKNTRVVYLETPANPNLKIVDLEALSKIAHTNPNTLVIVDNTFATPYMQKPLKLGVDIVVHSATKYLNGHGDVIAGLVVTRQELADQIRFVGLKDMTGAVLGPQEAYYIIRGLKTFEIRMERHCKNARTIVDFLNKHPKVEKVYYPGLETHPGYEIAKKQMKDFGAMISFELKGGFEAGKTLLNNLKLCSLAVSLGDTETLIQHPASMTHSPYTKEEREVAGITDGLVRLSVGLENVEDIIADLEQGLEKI
Protocol: MGL^Cys activity of Fn1419 was measured as previously reported. Fn1419 (5.75 nM) in assay buffer (40 mM potassium phosphate, pH 7.6, and 10 μM PLP) was mixed with various concentrations of L-cysteine (25, 50, 100, 200, 400, 800, or 1000 μM) and incubated for 15 min at 37 °C. H2S, the reaction product, was then detected based on methylene blue formation. Specifically, 100 μL of solution A (the enzyme reaction solution), 20 μL of solution B (20 mM N′,N′-dimethyl-p-phenylenediamine dihydrochloride and 7.2 M HCl), and 20 μL of solution C (30 mM FeCl3 and 1.2 M HCl) were mixed, and the mixture incubated for 30 min at room temperature.
(§1) Then, 500 μM L-cysteine was added, and the reaction was allowed to proceed for 5 min at 37 °C. The amount of produced H2S was detected indirectly, based on the formation of methylene blue. The reaction mixture consisted of solution A (100 μL), solution B (20 μL), and solution C (20 μL) (the solution composition is described at the enzyme assays) and was incubated for 30 min at 20 °C. The amount of generated methylene blue was detected at 670 nm, using a SpectraMax 190 Microplate Reader (Molecular Devices, San Jose, CA, USA) at 25 °C.

[2] = not told; cited from earlier work
[3] = in vivo; cited from earlier work
Fn1419 [4] = molecular target: T1, Fn1419; assay: IC50 determination on MGL^Cys activity of Fn1419; assay type: biochemical
Protocol: as §1
The concentration of the enzyme was 5.75 nM and the concentration of the six above-mentioned compounds was 500 μM. IC50 values were eventually calculated from non-linear regression curves fitted.

Pasteurella multocida = Pasteurella multocida strains; cited from earlier work
E. coli = E. coli strains; cited from earlier work
Fn1055 = assay: Inhibitory effect of gallic acid on H2S production of Fn1055; assay type: biochemical, Fusobacterium nucleatum; conditions: 500 μM gallic acid, 5.75 nM enzyme
Protocol: as §1

Mannheimia haemolytica = Mannheimia haemolytica strains; cited from earlier work
Fn1220 = assay: Inhibitory effect of gallic acid on H2S production of Fn1220; assay type: biochemical, Fusobacterium nucleatum; conditions: 500 μM gallic acid, 5.75 nM enzyme
Protocol: as §1

[5] = test system: antibiotic-resistant S. aureus; conditions: antibiotic-resistant S. aureus strains; cited from earlier work
[6] = 100 μM compound, 5.75 nM Fn1419, 500 μM L-cysteine
[7] = 5.75 nM enzyme, preincubation 20 min at 20 °C, read-out: IC50 (Fn1419 MGL^Cys activity)

Compound: N[C@@H](Cc1c[nH]c2ccc(O)cc12)C(=O)O [5-hydroxyl tryptophan]
- product increase rate (MGL^Cys activity of Fn1419 enhanced) (Fn1419 [1]; [6]): 53.0%

Compound: O=C(O)C1(O)C[C@@H](O)C(O)[C@H](O)C1 (stereo partly drawn) [D-quinic acid]
- product increase rate (MGL^Cys activity of Fn1419 enhanced) (Fn1419 [1]; [6]): 35.1%

Compound: O.O.O.O.O.OC[C@H]1O[C@H](OC[C@H]2O[C@H](O[C@]3(CO)O[C@H](CO)[C@@H](O)[C@@H]3O)[C@H](O)[C@@H](O)[C@@H]2O)[C@H](O)[C@@H](O)[C@H]1O [D-raffinose pentahydrate]
- product increase rate (MGL^Cys activity of Fn1419 enhanced) (Fn1419 [1]; [6]): 72.5%

Compound: NCCCC(=O)O [GABA]
- product increase rate (MGL^Cys activity of Fn1419 enhanced) (Fn1419 [1]; [6]): 9.9%

Compound: C[N+](C)(C)C[C@H](O)CC(=O)[O-] [L-carnitine]
- effect on MGL^Cys enzyme activity of Fn1419 (in words) (Fn1419 [1]; [6]): did not significantly affect enzyme activity

Compound: N[C@@H](CCC(=O)O)C(=O)O [L-glutamate]
- effect on MGL^Cys enzyme activity of Fn1419 (in words) (Fn1419 [1]; [6]): did not significantly affect enzyme activity

Compound: COc1cc2c(cc1OC)[C@@H]1Cc3ccc(OC)c(OC)c3CN1CC2 [L-tetrahydropal matrine]
- product increase rate (MGL^Cys activity of Fn1419 enhanced) (Fn1419 [1]; [6]): 71.7%

Compound: CC(=O)N[C@@H](CS)C(=O)O [N-acetyl-cysteine]
- product reduction rate (MGL^Cys activity of Fn1419) (Fn1419 [1]; [6]): 12%

Compound: CC(=O)O[C@H](CC(=O)O)C[N+](C)(C)C.[Cl-] [acetyl L-carnitine HCl]
- effect on MGL^Cys enzyme activity of Fn1419 (in words) (Fn1419 [1]; [6]): not significantly affected

Compound: O=c1cc(-c2ccc(O)cc2)oc2cc(O)cc(O)c12 [apigenin]
- effect on MGL^Cys enzyme activity of Fn1419 (in words) (Fn1419 [1]; [6]): not significantly affected

Compound: C[N+](C)(C)CC(=O)O [betaine-HCl]
- product increase rate (MGL^Cys activity of Fn1419 enhanced) (Fn1419 [1]; [6]): 24%

Compound: O=C(/C=C/c1ccc(O)c(O)c1)O[C@@H]1C[C@](O)(C(=O)O)C[C@@H](O)[C@H]1O [chlorogenic acid]
- effect on MGL^Cys enzyme activity of Fn1419 (in words) (Fn1419 [1]; [6]): did not significantly affect enzyme activity

Compound: C[N+](C)(C)CCO.O=C([O-])C(O)C(O)C(=O)O (stereo not shown) [choline bitartrate]
- product increase rate (MGL^Cys activity of Fn1419 enhanced) (Fn1419 [1]): 13.3%

Compound: C[N+](C)(C)CCOP(=O)([O-])OP(=O)([O-])OC[C@H]1O[C@@H](n2ccc(N)nc2=O)[C@H](O)[C@@H]1O.[Na+] [citicoline sodium]
- effect on MGL^Cys enzyme activity of Fn1419 (in words) (Fn1419 [1]; [6]): did not significantly affect enzyme activity

Compound: Nc1ncnc2c1ncn2[C@@H]1O[C@H](CO)C[C@H]1O [cordycepin]
- effect on MGL^Cys enzyme activity of Fn1419 (in words) (Fn1419 [1]; [6]): did not significantly affect enzyme activity

Compound: CN(CC(=O)O)C(=N)N.O [creatine monohydrate]
- product reduction rate (MGL^Cys activity of Fn1419) (Fn1419 [1]; [6]): 11.2%

Compound: COc1cc(/C=C/C(=O)CC(=O)/C=C/c2ccc(O)c(OC)c2)ccc1O [curcumin]
- product reduction rate (MGL^Cys activity of Fn1419) (Fn1419 [1]; [6]): 53.9%

Compound: O=C1c2c(O)cc(O)cc2O[C@H](c2cc(O)c(O)c(O)c2)[C@H]1O [dihydromyricetin]
- permeability [2]: low
- product reduction rate (MGL^Cys activity of Fn1419) (Fn1419 [1]; [6]): 89.5%
- bioavailability [3]: poor
- IC50 (Fn1419 [4]; [7]): 23 µM

Compound: OC[C@@H](O)[C@@H](O)CO [erythritol]
- product increase rate (MGL^Cys activity of Fn1419 enhanced) (Fn1419 [1]; [6]): 16.4%

Compound: CCOC(=O)c1cc(O)c(O)c(O)c1 [ethyl gallate]
- product reduction rate (MGL^Cys activity of Fn1419) (Fn1419 [1]; [6]): 81.9%
- IC50 (Fn1419 [4]; [7]): 517 µM

Compound: COc1cc(C(=O)O)cc(OC)c1OC [gallic acid trimethyl ether]
- effect on MGL^Cys enzyme activity of Fn1419 (in words) (Fn1419 [1]; [6]): did not affect

Compound: O=C(O)c1cc(O)c(O)c(O)c1 [gallic acid]
- growth inhibition (in words) (Pasteurella multocida): strongly inhibits the growth
- growth inhibition (in words) (E. coli): strongly inhibits the growth
- inhibition of Fn1055 (in words) (Fn1055): did not inhibit
- product reduction rate (MGL^Cys activity of Fn1419) (Fn1419 [1]; [6]): 84.8%
- growth inhibition (in words) (Mannheimia haemolytica): strongly inhibits the growth
- inhibition of Fn1220 (in words) (Fn1220): did not inhibit
- growth inhibition (in words) [5]: strongly inhibits the growth
- IC50 (Fn1419 [4]): 121 µM

Compound: CN(C)CCc1ccc(O)cc1.Cl [hordenine HCl]
- product increase rate (MGL^Cys activity of Fn1419 enhanced) (Fn1419 [1]; [6]): 32.1%

Compound: OCc1c[nH]c2ccccc12 [indole-3-carbinol]
- effect on MGL^Cys enzyme activity of Fn1419 (in words) (Fn1419 [1]; [6]): not significantly affected

Compound: O[C@H]1[C@H](O)[C@@H](O)[C@H](O)[C@@H](O)[C@H]1O [inositol]
- effect on MGL^Cys enzyme activity of Fn1419 (in words) (Fn1419 [1]; [6]): did not significantly affect enzyme activity

Compound: O=c1c(O)c(-c2ccc(O)cc2)oc2cc(O)cc(O)c12 [kaempferol]
- product reduction rate (MGL^Cys activity of Fn1419) (Fn1419 [1]; [6]): 40.4%

Compound: O=C1CCC[C@@H]2[C@H]3CCCN4CCC[C@@H](CN12)[C@@H]34 [matrine]
- product increase rate (MGL^Cys activity of Fn1419 enhanced) (Fn1419 [1]; [6]): 4.9%

Compound: COC(=O)c1cc(O)c(O)c(O)c1 [methyl gallate]
- product reduction rate (MGL^Cys activity of Fn1419) (Fn1419 [1]; [6]): 81.5%

Compound: O=C(O)c1cccnc1 [niacin]
- effect on MGL^Cys enzyme activity of Fn1419 (in words) (Fn1419 [1]): did not significantly affect enzyme activity

Compound: CCOC(=O)CNC(=O)[C@@H]1CCCN1C(=O)Cc1ccccc1 [noopept] (PhAc-Pro-Gly-OEt)
- product increase rate (MGL^Cys activity of Fn1419 enhanced) (Fn1419 [1]; [6]): 21.8%

Compound: CCCCCCCC/C=C\CCCCCCCC(N)=O [oleamide]
- product increase rate (MGL^Cys activity of Fn1419 enhanced) (Fn1419 [1]; [6]): 24.6%

Compound: O=C(O)/C=C/c1ccc(O)cc1 [p-coumaric, p-coumaric acid]
- effect on MGL^Cys enzyme activity of Fn1419 (in words) (Fn1419 [1]; [6]): not significantly affected

Compound: Cl.NCC(CC(=O)O)c1ccccc1 (stereo not shown) [phenibut HCl]
- product increase rate (MGL^Cys activity of Fn1419 enhanced) (Fn1419 [1]; [6]): 61.8%

Compound: NC(=O)CN1CC(c2ccccc2)CC1=O (stereo not shown) [phenylpiracetam]
- effect on MGL^Cys enzyme activity of Fn1419 (in words) (Fn1419 [1]; [6]): did not significantly affect enzyme activity

Compound: C/C=C/C=C/C(=O)[O-].[K+] [potassium sorbate]
- product reduction rate (MGL^Cys activity of Fn1419) (Fn1419 [1]): 5.3%

Compound: Cc1ncc(CO)c(CO)c1O [pyridoxine-HCl]
- effect on MGL^Cys enzyme activity of Fn1419 (in words) (Fn1419 [1]; [6]): did not significantly affect enzyme activity

Compound: Oc1cccc(O)c1O [pyrogallic acid]
- product reduction rate (MGL^Cys activity of Fn1419) (Fn1419 [1]; [6]): 89.8%
- IC50 (Fn1419 [4]): 57 µM

Compound: C[C@@H]1O[C@@H](OC[C@H]2O[C@@H](Oc3c(-c4ccc(O)c(O)c4)oc4cc(O)cc(O)c4c3=O)[C@H](O)[C@@H](O)[C@@H]2O)[C@H](O)[C@H](O)[C@H]1O [rutin]
- product reduction rate (MGL^Cys activity of Fn1419) (Fn1419 [1]; [6]): 18.2%

Compound: CNCC(O)c1ccc(O)cc1 (stereo not shown) [synephrine]
- product reduction rate (MGL^Cys activity of Fn1419) (Fn1419 [1]; [6]): 32.4%

Compound: O=C1O[C@H]([C@@H](O)CO)C(O)=C1O [vitamin C]
- effect on MGL^Cys enzyme activity of Fn1419 (in words) (Fn1419 [1]; [6]): did not significantly affect enzyme activity

Compound: OC[C@@H](O)[C@H](O)[C@@H](O)CO [xylitol]
- effect on MGL^Cys enzyme activity of Fn1419 (in words) (Fn1419 [1]; [6]): did not significantly affect enzyme activity

Compound: O=C(O)CCCCC1CCSS1 (stereo not drawn) [α-lipoic acid]
- effect on MGL^Cys enzyme activity of Fn1419 (in words) (Fn1419 [1]; [6]): not significantly affected

Compound: chondroitin sulfate
- product increase rate (MGL^Cys activity of Fn1419 enhanced) (Fn1419 [1]; [6]): 5.8%
